The structures appear in SMILES notation.

For 4 compounds, EC50 results are on record in patent publication US20150051186A1, “ARYL AZETIDINE DERIVATIVES AS SPHINGOSINE-1 PHOSPHATE RECEPTORS MODULATORS” (Allergan, Inc., priority 2013, published 2015).

For the experiment, the target named is T1, human S1P1 receptor (Homo sapiens, UniProt P21453).
T1 construct: expressed in transfected cells; membranes were used
T1 sequence (P21453 whole entry): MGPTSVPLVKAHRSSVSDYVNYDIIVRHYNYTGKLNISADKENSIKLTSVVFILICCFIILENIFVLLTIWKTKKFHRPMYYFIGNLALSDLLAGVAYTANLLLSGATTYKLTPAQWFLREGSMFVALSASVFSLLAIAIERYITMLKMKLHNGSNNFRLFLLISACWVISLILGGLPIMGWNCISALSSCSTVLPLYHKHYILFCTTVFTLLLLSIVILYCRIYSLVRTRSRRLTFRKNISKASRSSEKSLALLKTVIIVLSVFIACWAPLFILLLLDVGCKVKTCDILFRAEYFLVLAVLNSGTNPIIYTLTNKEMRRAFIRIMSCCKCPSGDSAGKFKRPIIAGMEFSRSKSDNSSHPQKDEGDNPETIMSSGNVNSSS
As to the kind of experiment: GTP γ35S binding assay for S1P1 activity. The class given is biochemical. As to conditions: membranes of cells stably expressing the S1P1 receptor, agonist potency. Here is the method: Compounds were synthesized and tested for S1P1 activity using the GTP γ^35S binding assay. These compounds may be assessed for their ability to activate or block activation of the human S1P1 receptor in cells stably expressing the S1P1 receptor.
GTP γ^35S binding was measured in the medium containing (mM) HEPES 25, pH 7.4, MgCl2 10, NaCl 100, dithiothreitol 0.5, digitonin 0.003%, 0.2 nM GTP γ^35S, and 5 μg membrane protein in a volume of 150 μl. Test compounds were included in the concentration range from 0.08 to 5,000 nM unless indicated otherwise. Membranes were incubated with 100 μM 5′-adenylylimidodiphosphate for 30 min, and subsequently with 10 μM GDP for 10 min on ice. Drug solutions and membrane were mixed, and then reactions were initiated by adding GTP γ^35S and continued for 30 min at 25° C. Reaction mixtures were filtered over Whatman GF/B filters under vacuum, and washed three times with 3 mL of ice-cold buffer (HEPES 25, pH7.4, MgCl2 10 and NaCl 100). Filters were dried and mixed with scintillant, and counted for ^35S activity using a β-counter. Agonist-induced GTP γ^35S binding was obtained by subtracting that in the absence of agonist. Binding data were analyzed using a non-linear regression method. In case of antagonist assay, the reaction mixture contained 10 nM […] in the presence of test antagonist at concentrations ranging from 0.08 to 5000 nM.
Background: Binding of GTPγS marks nucleotide exchange on a G protein.
The compound `Cc1ccc(CC(CCCCCCN2CC(C(=O)O)C2)c2cccc(Cl)c2)cc1C` (stereo not shown) [Compound 3, 1-[7-(3-Chlorophenyl)-8-(3,4-dimethylphenyl)octyl]azetidine-3-carboxylic acid] registered an EC50 of 801 nM.
For `Cc1ccc(CC(CCCCCCCN2CC(C(=O)O)C2)c2cccc(Cl)c2)cc1C` (stereo not shown) [Compound 4, 1-[8-(3-Chlorophenyl)-9-(3,4-dimethylphenyl)nonyl]azetidine-3-carboxylic acid] the value was 644 nM; for `O=C(O)C1CN(CCCCCCCCC(Cc2ccccc2)c2cccc(Cl)c2)C1` (stereo not shown) [Compound 1, 1-[9-(3-Chlorophenyl)-10-phenyldecyl]azetidine-3-carboxylic acid], 129 nM.
In turn, `Cc1ccc(CC(CCCCCCCN2CC(C(=O)O)C2)c2cc(F)cc(F)c2)cc1C` (stereo not shown) [Compound 2, 1-[8-(3,5-Difluorophenyl)-9-(3,4-dimethylphenyl)nonyl]azetidine-3-carboxylic acid] showed an EC50 of 61.4 nM.

In general, EC50 refers to the midpoint of the concentration-response curve. Higher therefore signals weaker potency.
